Source: PubChem BioAssay AID1745844 (Carcinogenic Potency Database (CPDB), 2022)
Active and inactive are the calls of the source. The rule behind the calls is not given here.

System: rodent lifetime carcinogenesis bioassay, tumor incidence TD50
Assay: carcinogenic potency in animals, long-term in vivo studies, CPDB compilation (AID 1745844)
[1] = mouse, strain B6AKF1, females, oral dosing, site: any site (literature study), lesion: several types, types named in the paper, dosed 76 weeks, study length 76 weeks
[2] = mouse, strain B6AKF1, males, oral dosing, site: any site (literature study), lesion: several types, types named in the paper, dosed 76 weeks, study length 76 weeks
[3] = mouse, strain B6AKF1, males, oral dosing, site: lung, lesion: adenoma, dosed 76 weeks, study length 76 weeks
[4] = mouse, strain B6C3F1, females, oral dosing, site: any site (literature study), lesion: several types, types named in the paper, dosed 76 weeks, study length 76 weeks
[5] = mouse, strain B6C3F1, females, oral dosing, site: lung, lesion: adenoma, dosed 76 weeks, study length 76 weeks
[6] = mouse, strain B6C3F1, males, oral dosing, site: any site (literature study), lesion: several types, types named in the paper, dosed 76 weeks, study length 76 weeks
[7] = mouse, strain B6C3F1, males, oral dosing, site: liver, lesion: hepatoma, dosed 76 weeks, study length 76 weeks
[8] = mouse, strain B6C3F1, males, oral dosing, site: lung, lesion: adenoma, dosed 76 weeks, study length 76 weeks

With `Cc1ccc(O)c(O)c1` the TD50 (rat, strain F344/DuCrj, females, in feed, site: forestomach, lesion: squamous-cell carcinoma, dosed 104 weeks, study length 104 weeks) was 1500 mg/kg/day, the TD50 (rat, strain F344/DuCrj, females, in feed, site: forestomach, lesion: squamous-cell papilloma, dosed 104 weeks, study length 104 weeks) was 253 mg/kg/day and the TD50 (rat, strain F344/DuCrj, females, in feed, site: stomach, glandular, lesion: adenocarcinoma, dosed 104 weeks, study length 104 weeks) was 1090 mg/kg/day. For the same compound, the carcinogen call (rat, strain F344/DuCrj, females, in feed, site: stomach, glandular, lesion: adenoma, dosed 104 weeks, study length 104 weeks) was “positive”, the TD50 (rat, strain F344/DuCrj, females, in feed, site: stomach, glandular, lesion: sarcoma, dosed 104 weeks, study length 104 weeks) was 6500 mg/kg/day and the TD50 (rat, strain F344/DuCrj, males, in feed, site: forestomach, lesion: squamous-cell carcinoma, dosed 104 weeks, study length 104 weeks) was 719 mg/kg/day. The TD50 (rat, strain F344/DuCrj, males, in feed, site: forestomach, lesion: squamous-cell papilloma, dosed 104 weeks, study length 104 weeks) was 468 mg/kg/day, the TD50 (rat, strain F344/DuCrj, males, in feed, site: stomach, glandular, lesion: adenocarcinoma, dosed 104 weeks, study length 104 weeks) was 656 mg/kg/day and the carcinogen call (rat, strain F344/DuCrj, males, in feed, site: stomach, glandular, lesion: adenoma, dosed 104 weeks, study length 104 weeks) was “positive”. For the same compound, the TD50 (rat, strain F344/DuCrj, males, in feed, site: stomach, glandular, lesion: sarcoma, dosed 104 weeks, study length 104 weeks) was 3830 mg/kg/day.
With `O=NN1CCCC1c1cccnc1` (stereo not given) the TD50 (hamster, strain Syrian Golden, females, in drinking water, site: respiratory system, lesion: papilloma, dosed 31 weeks, study length 96 weeks) was 11.5 mg/kg/day, the TD50 (hamster, strain Syrian Golden, males, in drinking water, site: liver, lesion: angiosarcoma, dosed 31 weeks, study length 96 weeks) was 34.4 mg/kg/day and the TD50 (hamster, strain Syrian Golden, males, in drinking water, site: respiratory system, lesion: papilloma, dosed 31 weeks, study length 96 weeks) was 10.1 mg/kg/day.
In the case of `Clc1ccc(C(c2ccc(Cl)cc2)C(Cl)Cl)cc1`, the TD50 [1] is reported as 37.4 mg/kg/day, the TD50 (mouse, strain B6AKF1, females, oral dosing, site: lung, lesion: adenoma, dosed 76 weeks, study length 76 weeks) is reported as 73 mg/kg/day and the TD50 [2] is reported as 49 mg/kg/day. For the same compound, the TD50 [3] was 82.9 mg/kg/day, the TD50 (mouse, strain B6C3F1, females, in feed, site: any site (literature study), lesion: several types, types named in the paper, dosed 78 weeks, study length 90 weeks) was 108 mg/kg/day (inactive) and the TD50 (mouse, strain B6C3F1, females, in feed, site: liver, lesion: hepatocellular adenoma + hepatocellular carcinoma + neoplastic nodule, dosed 78 weeks, study length 90 weeks) was 493 mg/kg/day. The TD50 [4] was 250 mg/kg/day, the TD50 [5] was 250 mg/kg/day and the TD50 (mouse, strain B6C3F1, males, in feed, site: any site (literature study), lesion: several types, types named in the paper, dosed 78 weeks, study length 90 weeks) was 997 mg/kg/day (inactive). For the same compound, the TD50 (mouse, strain B6C3F1, males, in feed, site: liver, lesion: hepatocellular adenoma + hepatocellular carcinoma + neoplastic nodule, dosed 78 weeks, study length 90 weeks) was 116 mg/kg/day, the TD50 [6] was 34.8 mg/kg/day and the TD50 [7] was 43.3 mg/kg/day. The TD50 [8] was 120 mg/kg/day, the TD50 (mouse, strain CF-1, females, in feed, site: any site (literature study), lesion: several types, types named in the paper, dosed 123 weeks, study length 123 weeks) was 67.1 mg/kg/day and the TD50 (mouse, strain CF-1, females, in feed, site: liver, lesion: hepatoma, dosed 123 weeks, study length 123 weeks) was 4830 mg/kg/day (inactive). For the same compound, the TD50 (mouse, strain CF-1, females, in feed, site: lung, lesion: several types, types named in the paper, dosed 123 weeks, study length 123 weeks) was 39.9 mg/kg/day, the TD50 (mouse, strain CF-1, males, in feed, site: any site (literature study), lesion: several types, types named in the paper, dosed 123 weeks, study length 123 weeks) was 33.2 mg/kg/day and the TD50 (mouse, strain CF-1, males, in feed, site: liver, lesion: hepatoma, dosed 123 weeks, study length 123 weeks) was 86.8 mg/kg/day. For the same compound, the TD50 (mouse, strain CF-1, males, in feed, site: lung, lesion: several types, types named in the paper, dosed 123 weeks, study length 123 weeks) was 24.9 mg/kg/day, the carcinogen call (rat, strain Osborne-Mendel, females, in feed, site: any site (literature study), lesion: several types, types named in the paper, dosed 78 weeks, study length 111 weeks) was “negative (inactive)” and the TD50 (rat, strain Osborne-Mendel, females, in feed, site: liver, lesion: hepatocellular adenoma + hepatocellular carcinoma + neoplastic nodule, dosed 78 weeks, study length 111 weeks) was 2080 mg/kg/day. The TD50 (rat, strain Osborne-Mendel, males, in feed, site: any site (literature study), lesion: several types, types named in the paper, dosed 78 weeks, study length 111 weeks) was 82.6 mg/kg/day and the TD50 (rat, strain Osborne-Mendel, males, in feed, site: thyroid gland, lesion: follicular-cell adenoma + follicular-cell carcinoma, dosed 78 weeks, study length 111 weeks) was 75.8 mg/kg/day.
With `Cc1cc(OC(=O)N(C)C)n(C(C)C)n1` the TD50 [1] was 0.023 mg/kg/day (inactive), the carcinogen call (mouse, strain B6AKF1, females, oral dosing, site: liver, lesion: hepatoma, dosed 76 weeks, study length 76 weeks) was “negative (inactive)” and the carcinogen call (mouse, strain B6AKF1, females, oral dosing, site: lung, lesion: several types, types named in the paper, dosed 76 weeks, study length 76 weeks) was “negative (inactive)”. The TD50 [2] was 0.0124 mg/kg/day (inactive), the TD50 (mouse, strain B6AKF1, males, oral dosing, site: liver, lesion: hepatoma, dosed 76 weeks, study length 76 weeks) was 0.0419 mg/kg/day (inactive) and the TD50 [3] was 0.0147 mg/kg/day (inactive). The carcinogen call [4] was “negative (inactive)”, the carcinogen call (mouse, strain B6C3F1, females, oral dosing, site: liver, lesion: hepatoma, dosed 76 weeks, study length 76 weeks) was “negative (inactive)” and the carcinogen call [5] was “negative (inactive)”. For the same compound, the TD50 [6] was 0.0413 mg/kg/day (inactive), the carcinogen call [7] was “negative (inactive)” and the TD50 [8] was 0.0156 mg/kg/day (inactive).
For `Nc1ccccc1`, the TD50 (mouse, strain B6C3F1, females, in feed, site: any site (literature study), lesion: several types, types named in the paper, dosed 103 weeks, study length 107 weeks) was 9150 mg/kg/day (inactive), the TD50 (mouse, strain B6C3F1, females, in feed, site: liver, lesion: hepatocellular adenoma + hepatocellular carcinoma + neoplastic nodule, dosed 103 weeks, study length 107 weeks) was 8850 mg/kg/day and the carcinogen call (mouse, strain B6C3F1, males, in feed, site: any site (literature study), lesion: several types, types named in the paper, dosed 103 weeks, study length 107 weeks) was “negative (inactive)”. For the same compound, the TD50 (rat, strain Fischer 344, females, in feed, site: liver, lesion: hepatocellular adenoma + hepatocellular carcinoma + neoplastic nodule, dosed 103 weeks, study length 107 weeks) was 13000 mg/kg/day, the TD50 (rat, strain Fischer 344, females, in feed, site: multiple organs + spleen, lesion: fibrosarcoma + sarcoma, NOS, dosed 103 weeks, study length 107 weeks) was 1740 mg/kg/day and the TD50 (rat, strain Fischer 344, males, in feed, site: adrenal gland, lesion: pheochromocytoma + pheochromocytoma, malignant, dosed 103 weeks, study length 107 weeks) was 556 mg/kg/day. The TD50 (rat, strain Fischer 344, males, in feed, site: any site (literature study), lesion: several types, types named in the paper, dosed 103 weeks, study length 107 weeks) was 124 mg/kg/day, the TD50 (rat, strain Fischer 344, males, in feed, site: body cavities + multiple organs + spleen, lesion: mesothelioma, NOS + fibrosarcoma + hemangiosarcoma + sarcoma, NOS, dosed 103 weeks, study length 107 weeks) was 88 mg/kg/day and the TD50 (rat, strain Fischer 344, males, in feed, site: body cavities + multiple organs + spleen, lesion: mesothelioma, NOS + fibrosarcoma + sarcoma, NOS, dosed 103 weeks, study length 107 weeks) was 263 mg/kg/day. The TD50 (rat, strain Fischer 344, males, in feed, site: body cavities + multiple organs + spleen, lesion: mesothelioma, NOS + hemangiosarcoma, dosed 103 weeks, study length 107 weeks) was 146 mg/kg/day, the TD50 (rat, strain Fischer 344, males, in feed, site: body cavities + multiple organs, lesion: mesothelioma, NOS + fibrosarcoma + sarcoma, NOS, dosed 103 weeks, study length 107 weeks) was 572 mg/kg/day and the TD50 (rat, strain Fischer 344, males, in feed, site: spleen, lesion: fibrosarcoma + sarcoma, NOS, dosed 103 weeks, study length 107 weeks) was 451 mg/kg/day. For the same compound, the TD50 (rat, strain Fischer 344, males, in feed, site: spleen, lesion: hemangiosarcoma, dosed 103 weeks, study length 107 weeks) was 160 mg/kg/day.
For `NC(=O)N/N=C/c1ccco1`, the TD50 (rat, strain Sprague-Dawley, females, in feed, site: mammary gland, lesion: fibroadenoma, dosed 46 weeks, study length 66 weeks) was 48.8 mg/kg/day (inactive).
Compound `C=C(C)CCl` has a TD50 (mouse, strain B6C3F1, females, by gavage, site: any site (literature study), lesion: several types, types named in the paper, dosed 103 weeks, study length 105 weeks) of 149 mg/kg/day, a TD50 (mouse, strain B6C3F1, females, by gavage, site: forestomach, lesion: squamous-cell carcinoma + squamous-cell papilloma, dosed 103 weeks, study length 105 weeks) of 82.3 mg/kg/day and a TD50 (mouse, strain B6C3F1, females, by gavage, site: forestomach, lesion: squamous-cell papilloma, dosed 103 weeks, study length 105 weeks) of 87.7 mg/kg/day. It also gave a TD50 (mouse, strain B6C3F1, females, by gavage, site: lung, lesion: alveolar/bronchiolar adenoma + alveolar/bronchiolar carcinoma, dosed 103 weeks, study length 105 weeks) of 5180 mg/kg/day, a TD50 (mouse, strain B6C3F1, males, by gavage, site: any site (literature study), lesion: several types, types named in the paper, dosed 103 weeks, study length 105 weeks) of 402 mg/kg/day and a TD50 (mouse, strain B6C3F1, males, by gavage, site: forestomach, lesion: squamous-cell carcinoma + squamous-cell papilloma, dosed 103 weeks, study length 105 weeks) of 73.5 mg/kg/day. For the same compound, the TD50 (mouse, strain B6C3F1, males, by gavage, site: forestomach, lesion: squamous-cell carcinoma, dosed 103 weeks, study length 105 weeks) was 432 mg/kg/day, the TD50 (mouse, strain B6C3F1, males, by gavage, site: forestomach, lesion: squamous-cell papilloma, dosed 103 weeks, study length 105 weeks) was 96.2 mg/kg/day and the TD50 (mouse, strain BDF1, females, inhaled, site: Harderian gland, lesion: adenoma, dosed 104 weeks, study length 104 weeks) was 665 mg/kg/day. It also gave a TD50 (mouse, strain BDF1, females, inhaled, site: forestomach, lesion: squamous-cell papilloma, dosed 104 weeks, study length 104 weeks) of 1850 mg/kg/day, a TD50 (mouse, strain BDF1, females, inhaled, site: liver, lesion: hepatocellular carcinoma, dosed 104 weeks, study length 104 weeks) of 60000 mg/kg/day and a TD50 (mouse, strain BDF1, females, inhaled, site: lung, lesion: alveolar/bronchiolar carcinoma, dosed 104 weeks, study length 104 weeks) of 6750 mg/kg/day. The TD50 (mouse, strain BDF1, males, inhaled, site: forestomach, lesion: squamous-cell carcinoma, dosed 104 weeks, study length 104 weeks) was 11500 mg/kg/day, the TD50 (mouse, strain BDF1, males, inhaled, site: forestomach, lesion: squamous-cell papilloma, dosed 104 weeks, study length 104 weeks) was 2040 mg/kg/day and the TD50 (mouse, strain BDF1, males, inhaled, site: lung, lesion: alveolar/bronchiolar adenoma, dosed 104 weeks, study length 104 weeks) was 1020 mg/kg/day. The TD50 (mouse, strain BDF1, males, inhaled, site: lung, lesion: alveolar/bronchiolar carcinoma, dosed 104 weeks, study length 104 weeks) was 1570 mg/kg/day, the TD50 (rat, strain Fischer 344, females, by gavage, site: any site (literature study), lesion: several types, types named in the paper, dosed 103 weeks, study length 105 weeks) was 323 mg/kg/day and the TD50 (rat, strain Fischer 344, females, by gavage, site: forestomach, lesion: papilloma, NOS, dosed 103 weeks, study length 105 weeks) was 320 mg/kg/day. The TD50 (rat, strain Fischer 344, females, by gavage, site: subcutaneous tissue, lesion: fibroma, dosed 103 weeks, study length 105 weeks) was 524 mg/kg/day, the TD50 (rat, strain Fischer 344, males, by gavage, site: any site (literature study), lesion: several types, types named in the paper, dosed 103 weeks, study length 105 weeks) was 109 mg/kg/day and the TD50 (rat, strain Fischer 344, males, by gavage, site: forestomach, lesion: papilloma, NOS, dosed 103 weeks, study length 105 weeks) was 68.7 mg/kg/day. It also gave a TD50 (rat, strain Fischer 344, males, by gavage, site: liver, lesion: hepatocellular adenoma + hepatocellular carcinoma + neoplastic nodule, dosed 103 weeks, study length 105 weeks) of 714 mg/kg/day and a TD50 (rat, strain Fischer 344, males, by gavage, site: testis, lesion: interstitial-cell tumor, dosed 103 weeks, study length 105 weeks) of 54 mg/kg/day.
